Assay: Pharmacokinetic properties in SD rats after intramuscular injection
Conditions: male SD rats, i.m., 90 mg/kg (based on donepezil), oil solvent, plasma, LC/MS/MS
From the text: Pharmacokinetic Properties of Compounds of the Present Invention Administered to Rats
In the present embodiment, male SD rats (SPF grade), aged […] and weighing 180 to 220 g, were purchased from Shanghai Slack laboratory Animal Co., Ltd. Throughout the process of the experiment, give the rats free access to food and water.
Adopting grouping of random grouping design, the SD rats for experiments were grouped according to gender and body weight.
The whole blood was collected and placed on ice, followed by centrifugation at 4° C., 8000 rpm and 5 min to collect plasma The plasma was transferred to a 96-well plate and stored at −20° C. until LC-MS/MS examination. Drug concentrations in EDTA (4 mM) anticoagulated plasma of SD rats were determined using LC/MS/MS (Agilent6460). Using WinNonlin 5.2 software, calculate respective relevant pharmacokinetic parameters of each group at each time point after administration according to statistical moment theory.
t1/2 was calculated by the formula t1/2=0.693/λz; λz is an end elimination rate constant derived from the logarithmic concentration—the straight part of the end of time curve, which can be derived from the slope of the logarithmic concentration—the straight part of the end of time curve.

What does the source list for `CCCCCCC(=O)OC1=C(CC2CCN(Cc3ccccc3)CC2)Cc2cc(OC)c(OC)cc21` [Compound 3, Donepezil Heptanoate]?
Cmax (measured value): 44.11 ng/mL; Tmax (measured value): 18.00 h; T1/2 (t1/2=0.693/λz): 314.18 h
